In paper PMC3677616, “Interaction of Human Dopa Decarboxylase with L-Dopa: Spectroscopic and Kinetic Studies as a Function of pH” (BioMed Research International, 2013):
Blank lines part the entries; values can stand above or below the molecule they belong to.

What was measured:
[1] = molecular target: T1, hDDC (human Dopa decarboxylase) (Homo sapiens, UniProt P20711); assay: stopped-flow absorbance at […] nm, hyperbolic fit of kobs (two-step binding); settings: read-out: K1
T1 construct: gene DDC; homodimer
T1 sequence (P20711 1-480): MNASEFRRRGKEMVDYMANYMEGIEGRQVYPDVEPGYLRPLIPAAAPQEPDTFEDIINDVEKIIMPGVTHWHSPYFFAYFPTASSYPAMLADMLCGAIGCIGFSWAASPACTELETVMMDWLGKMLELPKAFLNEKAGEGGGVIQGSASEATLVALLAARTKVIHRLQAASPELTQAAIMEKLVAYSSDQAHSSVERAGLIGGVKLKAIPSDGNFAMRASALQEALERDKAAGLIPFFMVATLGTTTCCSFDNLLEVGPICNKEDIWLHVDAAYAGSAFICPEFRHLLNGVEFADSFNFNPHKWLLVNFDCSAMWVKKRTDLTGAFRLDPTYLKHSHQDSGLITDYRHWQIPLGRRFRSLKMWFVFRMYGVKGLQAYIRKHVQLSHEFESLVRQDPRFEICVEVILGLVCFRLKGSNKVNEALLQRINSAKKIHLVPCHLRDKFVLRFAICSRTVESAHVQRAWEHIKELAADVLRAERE

[2] = molecular target: T1, hDDC (human Dopa decarboxylase); assay: quenching of intrinsic fluorescence of apoenzyme, tight-binding quadratic fit; settings: read-out: KD(PLP)
[3] = substrate: N[C@@H](Cc1ccc(O)c(O)c1)C(=O)O; assay: steady-state decarboxylation, spectrophotometric assay, Michaelis-Menten fit; type: biochemical, Homo sapiens; settings: pH 6.0, 50 mM Bis-Tris-propane, 10 μM PLP, 25°C

Kd [1]: 320 ± 20 µM
Molecule: N[C@@H](Cc1ccc(O)c(O)c1)C(=O)O [L-Dopa]

Kd [2]: 0.2 µM
Molecule: Cc1ncc(COP(=O)(O)O)c(C=O)c1O [PLP]

B1: hDDC (human Dopa decarboxylase) (Homo sapiens) (protein)
chain: MNASEFRRRGKEMVDYMANYMEGIEGRQVYPDVEPGYLRPLIPAAAPQEPDTFEDIINDVEKIIMPGVTHWHSPYFFAYFPTASSYPAMLADMLCGAIGCIGFSWAASPACTELETVMMDWLGKMLELPKAFLNEKAGEGGGVIQGSASEATLVALLAARTKVIHRLQAASPELTQAAIMEKLVAYSSDQAHSSVERAGLIGGVKLKAIPSDGNFAMRASALQEALERDKAAGLIPFFMVATLGTTTCCSFDNLLEVGPICNKEDIWLHVDAAYAGSAFICPEFRHLLNGVEFADSFNFNPHKWLLVNFDCSAMWVKKRTDLTGAFRLDPTYLKHSHQDSGLITDYRHWQIPLGRRFRSLKMWFVFRMYGVKGLQAYIRKHVQLSHEFESLVRQDPRFEICVEVILGLVCFRLKGSNKVNEALLQRINSAKKIHLVPCHLRDKFVLRFAICSRTVESAHVQRAWEHIKELAADVLRAERE
notes: homodimer
Km [3]: 230 ± 30 µM
kcat [3]: 3 s⁻¹
